Literature values as cited in US8598236B2, “Emulsion system derived from engkabang fat esters” (Universiti Putra Malaysia, priority 2009, dated 2013).

Conditions: purchased nonionic surfactants

For Sorbitan mono-oleate [Span80], which HLB value is on record?
Its HLB value is 4.3.

Which HLB value does the source give for sorbitan monolaurate [Span20] here?
The HLB value was 8.6.

For “polyoxyethylene (20) sorbitan tri-oleate [Tween85]”, which HLB value is on record?
The HLB value was 11.0.
